Values joined by “and” are separate entries in the source; they are usually repeats but may differ in a detail not shown here. Identical values can stand only once. Active and inactive are the calls of the source.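 The calls were made as follows: active = curve reaches 40% activation over neutral controls at an AC40 no higher than the top valid tested concentration; inconclusive = no clear call, values can overlap the other calls; inactive = signal moving opposite to the expected increase, and the rest.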
Tested on: INS-1E GLuc insulin secretion reporter, luminescence, 2-3 h
Assay: GLuc-reported insulin release enhancers, glucose-stimulated beta cells – cell-based, INS-1E, Gaussia luciferase, luminescence, cherry-pick, set 2, dose response (AID 977607)

SMILES	AC40
CCOc1ccccc1Nc1cc2n(c(=O)n1)CCc1cc(OC)c(OC)cc1-2	1.07 µM
COc1cc2c(cc1OC)-c1cc(N3CCc4ccccc43)nc(=O)n1CC2	15.6 µM
C/C(=N\NC(=O)c1ccc(Cl)c(Cl)c1)c1ccc(Br)s1	9.32 µM
COc1ccc(C2=Nn3c(nnc3-c3ccccc3F)SC2)cc1OCC1CC1	1.23 µM
C/C=C/c1ccc(C2[C@@H]3CN(C(=O)Nc4ccc(C(F)(F)F)cc4)C[C@H]2N3)cc1 (some centres undefined)	12.5 µM
CCN(CC)c1ccc(N=Cc2c(O)n(Cc3ccccc3)c(=O)[nH]c2=O)cc1	11.3 µM
CCc1ccc(OCC(=O)NC(=S)Nc2ccc(F)cc2)c(Br)c1	10 µM
CCn1nc(C(=O)Nc2ccc3nc(C)sc3c2)c2ccccc2c1=O	25.1 µM
CCCCc1c(Cc2ccccc2)ncn1CCc1ccccc1OC	14.3 µM
CCCCc1c(-c2ccccc2OC)ncn1CCc1ccccc1	16.7 µM
COc1ccc(OC)c(NC(=O)c2cc3c(Cl)nc4ccccc4c3s2)c1	10.2 µM
CONc1nc(NC(C)(C)C)nc(OCC#N)n1	> 35 µM (inactive)
Cc1ccccc1-c1ccc(C2[C@@H]3CN(C(=O)Nc4cccc(F)c4)C[C@H]2N3)cc1 (some centres undefined)	8.64 µM
Nc1nc(N)c2cc(Sc3ccc(Cl)cc3)ccc2n1	7.16 µM
CCOc1ccc(CCNC(=O)Cn2ccc3ccccc3c2=O)cc1OCC	> 35 µM (inactive)
CS(=O)(=O)c1cnc(-c2ccccc2)nc1Oc1ccc(F)cc1	15.1 µM
CCOc1ccc(/C=N/NC(=O)c2cc(-c3ccco3)nc3ccccc23)cc1	8.25 µM
Cc1ccccc1NC(=O)c1ccc(OCc2c(C)noc2C)cc1	> 35 µM (inactive)
COC(=O)c1ccc(C(=O)Nc2cc(Cl)ccc2Cl)cc1NC(=O)c1ccccc1C	2.43 µM
CCNC(=O)NC(=O)C(C)OC(=O)c1oc2ccccc2c1CSC1CCCCC1 (centres undefined)	5.51 µM
O=C(NCC1OCCc2ccccc21)c1ccc(NC(=O)c2ccc(Cl)cc2)cc1 (centres undefined)	5.18 µM
CCC(=O)Nc1ccc(Cl)c(NC(=S)NC(=O)COc2ccc(Cl)cc2)c1	7.71 µM
COc1cccc(OCc2nc3c4cnn(-c5ccccc5)c4ncn3n2)c1	8.5 µM
O=C(N/N=C/c1ccc(Cl)cc1Cl)Nc1ccccc1	7.74 µM
COc1ccc(OC)c(-c2nnc3n2N=C(c2ccc(OC)c(OC)c2)CS3)c1	0.564 µM
N#Cc1sc2nc3c(c(-c4cccnc4)c2c1N)CCC3	26.5 µM
COC(=O)c1ccc2c(=O)[nH]c(CSc3nc(-c4ccc(F)cc4)cs3)nc2c1	5.86 µM

SMILES	AC40
O=C1N/C(=N\N=C\c2cccs2)SC1Cc1cccc(Cl)c1 (centres undefined)	9.04 µM
FC(F)(F)c1cc(CCN2CCNC[C@H]2Cc2cccc3ccccc23)cc(C(F)(F)F)c1	7.24 µM
COc1ccc(CNCC(O)COc2ccc(C(C)(C)c3ccccc3)cc2)cc1 (centres undefined)	6.55 µM
Cc1cccc(-c2ccc(C3[C@@H]4CN(Cc5cccc(F)c5)C[C@H]3N4)cc2)c1 (some centres undefined)	12.3 µM and 2.97 µM
NC1=NC[C@H](CC2CCCCC2)N1CCc1cc(C(F)(F)F)cc(C(F)(F)F)c1	16.6 µM
NC1=NC[C@H](c2ccccc2)N1CCCCC1CCCCC1	28.8 µM
COc1nc(N2CCOCC2)nc(-n2cccc2)n1	0.937 µM
NC(c1csc(NC(=O)Nc2cccc(C(F)(F)F)c2)n1)C1CCCCC1 (centres undefined)	6.13 µM
Cc1ccccc1Cn1ccc(NC(=O)c2cc3nc(-c4ccco4)cc(C(F)(F)F)n3n2)n1	4.72 µM
COc1ccc(-c2ccncc2)cc1OC	13 µM
CCOC(=O)[C@]12Cc3c(cc(OC)c(OC)c3OC)[C@H]1N(C1CCCCC1)C(=O)c1cc(OC)ccc12	15.5 µM
CCCCCCN1C[C@H](n2cc(C3CC3)nn2)[C@@H](O)C[C@@H]1c1ccc(C)cc1	7.33 µM
COc1ccc(-c2nnn(Cc3nc(N)nc(N4CCOCC4)n3)n2)cc1OC	1.67 µM
Cc1cccc(OCC(=O)Nc2ccc(NC(=O)c3ccco3)cc2)c1	17.8 µM
Cc1cccc(Cn2ccc(-c3ccc(Cl)cc3)c(C#N)c2=O)c1	7 µM
Cc1ccc(-n2ncc3c(=O)n(CC(=O)Nc4cccc(Cl)c4)cnc32)cc1C	6.37 µM
Cc1nc2c(=O)n(C)c(=O)n(C)c2nc1Cl	25.8 µM
CCCc1nc2ccccc2c(=O)n1CC(=O)c1ccc(OC)cc1	16.4 µM
CCc1c(C)sc(NC(=O)c2cc(-c3ccc(OC)c(OC)c3)on2)c1C#N	9.5 µM
COC(=O)C1=C(C)N(Cc2ccc(C(F)(F)F)cc2)C(=NCc2ccccc2)NC1c1ccc(Cl)cc1 (centres undefined)	8.24 µM
COc1cc(/C=N/NC(=O)Nc2ccccc2)ccc1OCCOc1ccccc1C	2.29 µM
OC(CNCCc1ccc(C(F)(F)F)cc1)COC(c1ccccc1)c1ccccc1 (centres undefined)	6.21 µM
O=C(CCN1CCOCC1)c1ccccc1	7.71 µM
CCSc1nnc(NC(=O)c2csc3c2CCCC3)s1	2.22 µM
COc1ccc(C(=O)NC(=S)Nc2ccc3c4c(cccc24)CC3)cc1OC	7.84 µM
O=c1[nH]nc(-c2ccccc2)c2ccccc12	22.5 µM
CC(NC(=O)COC(=O)c1ccccc1Nc1ccccc1)c1ccccc1 (centres undefined)	12.2 µM

SMILES	AC40
Cc1ccc2oc(-c3cccc(NC(=O)Cc4cccs4)c3)nc2c1	5.62 µM
COc1ccc(C2CNC(=O)C2)cc1OC1CCCC1 (centres undefined)	1.98 µM
COC(=O)c1ccc(OC)c(OC2CCCC2)c1	0.254 µM
Oc1ccccc1-c1cc(C(F)(F)C(F)F)nc(-c2ccccc2)n1	7.7 µM
COc1ccc(Br)cc1C(=O)Nc1cc(C)cc(C)c1	7.63 µM
CCCCc1c(-c2ccccc2OC)ncn1Cc1ccccc1C	10.4 µM
CCN(Cc1ccccc1)S(=O)(=O)c1ccc(C(=O)N(CCCN(C)C)c2nc3cc(C)cc(C)c3s2)cc1	17.4 µM
Cc1cccc(NC(=O)c2ccc(OCc3c(C)noc3C)cc2)c1C	1.54 µM
Cc1ccc(C)c(OCC(=O)N/N=C/c2c(C)nn(-c3ccccc3)c2Cl)c1C	3.2 µM
O=C(Nc1ccc2c(c1)OCO2)c1sc2cc(Cl)ccc2c1Cl	12 µM
COc1ccccc1CCn1cnc(-c2cccc(F)c2)c1CC(C)C	11.3 µM
Cc1ccc(CNc2nc(NCc3ccccc3)nc3ccsc23)c(C)c1	19.2 µM
CCCCc1c(-c2ccccc2F)ncn1CCc1ccccc1OC	7.64 µM
Cc1ccc(NC(=O)CNC(=O)c2sc3ccccc3c2Cl)nc1	14.3 µM
Cc1ccc(-c2cc(C(=O)NCc3cnn(C)c3)c3cc(Br)ccc3n2)cc1	3.7 µM
COC(=O)C1=C(C)N(Cc2cccc(C(F)(F)F)c2)C(=NCc2ccc3c(c2)OCO3)NC1CCc1ccccc1 (centres undefined)	13.1 µM
Cc1ccc(-n2sc3cc(F)ccc3c2=O)c(C)c1	1.94 µM
COc1cccc(-c2sc3ccccc3c2-c2ccc(OCCN(C)C)cc2)c1	3.37 µM
COc1cccc(-c2ccc(C3[C@@H]4CN(Cc5cccc(F)c5)C[C@H]3N4)cc2)c1 (some centres undefined)	4.47 µM
CCOC(=O)c1[nH]c2cc(OC)c(OC)cc2c1NC(=O)c1ccc2c(c1)OCO2	18.1 µM
C[C@H]1CN([C@@H](C)CO)S(=O)(=O)c2ccc(C#Cc3ccccc3)cc2O[C@@H]1CN(C)C(=O)CN(C)C	28 µM
CCOc1ncccc1C(=O)Nc1ccc(S(=O)(=O)Nc2nccs2)cc1	3.21 µM
COC(=O)c1ccc2c(c1)NC(=O)C(N(CC(C)C)CC(C)C)S2 (centres undefined)	5.29 µM
CCCCCCn1c(-c2cccs2)n[nH]c1=S	> 35 µM (inactive)
Cc1ccc(-c2nnc3sc(-c4ccncc4)nn23)cc1	13.5 µM

— PubChem BioAssay AID977607 (Broad Institute, 2014)
